Results: patent US6900216B2, “Dihydroimidazo[2,1-b]thiazole and dihydro-5h-thiazolo[3,2-A]pyrimidines as antidepressant agents” (Knoll GmbH, priority 2000, dated 2005)

Tests used:
5-HT reuptake sites = target: T1, 5-HT reuptake sites (Rattus norvegicus, UniProt P31652); assay: 5-HT uptake: displacement of [3H]citalopram from 5-HT reuptake sites, rat frontal cortical membranes; format: binding; conditions: for inhibition at 1 µM: 10^−6 M test compound, single determination, [3H]citalopram; for Ki: [3H]citalopram 1.3 nM, rat frontal cortical membranes, fit to data from three experiments
T1 construct: Frontal cortical tissue from the brains of male Charles River rats; from tissue; host or cells: rat frontal cortical membranes
Protocol: Frontal cortical tissue from the brains of male Charles River rats weighing 150-250 g was homogenised in ice-cold 50 mM Tris-HCl, pH 7.4 (when measured at 25° C.) containing 120 mM sodium chloride and 5 mM potassium chloride (Tris buffer; 1:30 w/v) and centrifuged at 40,000 g for 10 minutes. The supernatant was discarded and the pellet rehomogenised in Tris buffer, 1:60 w/v, and centrifuged at 40,000 g for 10 minutes. This step was repeated a further time. The final pellet was resuspended in 50 mM Tris-HCl, pH 7.4 containing 120 mM sodium chloride and 5 mM potassium chloride (equivalent to 3.125 mg wet weight of tissue/ml) and used immediately in the binding assay. All centrifugations were performed at 4° C.
Membranes (400 μl; equivalent to 1.25 mg wet weight of tissue/tube) were incubated with 50 μl [^3H]citalopram at a single concentration of 1.3 nM and 50 μl of distilled water (total binding) or 50 μl of test compound (at a single concentration of 10^−6 M or at 10 concentrations ranging from 10^−11-10^−3 M) or 50 μl of paroxetine (0.5 μM; non-specific binding) for 1 h at 27° C. Membrane bound radioactivity was recovered by filtration under vacuum through Skatron 11734 filters presoaked in 0.5% PEI using a Skatron Cell Harvester. Filters were then washed in ice-cold 50 mM Tris-HCl buffer, pH 7.4 (at 25° C., wash setting 9,9,0). The scored filter paper discs were punched out into vials, scintillation fluid added and radioactivity determined by liquid scintillation counting.
(§1) For each of these tests measuring the ability of compounds of Formula I to displace standard ligands from 5-HT1A receptors and 5-hydroxytryptamine (5-HT) and noradrenaline (NA) reuptake sites and muscarinic receptors in vitro, the percentage displacement of specific binding of tritiated ligand by 10^−6 M test compound was calculated in the following way.
(§2) Firstly, specific binding of tritiated ligand in the absence (A) and presence (B) of test compound was determined:
(§3) In the absence of compound: A(dpm)=Total binding (dpm)−Non-specific binding (dpm) In the presence of compound (10^−6 M): B(dpm)=Binding at 10^−6M (dpm)−Non-specific binding (dpm)
(§4) The specific binding of tritiated ligand in the presence (B) of compound was then converted to a percentage of specific binding of tritiated ligand in the absence (A) of compound: % Specific binding at 10^−6 M=B(dpm)/A(dpm)×100
(§5) The percentage displacement of specific binding of tritiated ligand by the test compound (10^−6 M) was then obtained by subtraction of the percentage specific binding in the presence of compound from the percentage specific binding in the absence of compound, which is taken as the maximum binding and so equals 100%:
(§6) % Displacement at 10^−6 M=100−% Specific binding at 10^−6 M.
(§7) In some cases, displacement curves were then produced for compounds which displaced ≧50% of specific binding of the tritiated ligand at 10^−6 M using a range of concentrations of the compound. The Ki was then calculated by simultaneous fitting using equations derived from the Feldman equations by robust non-linear regression to data from three experiments simultaneously (De Lean et al., 1978; Munson and Rodbard, 1980; Feldman, 1992). Munson P J and Rodbard D. Ligand: a versatile computerised approach for characterisation of ligand binding systems. Anal Biochem 1980; 107: 220. Feldman HA. Mathematical theory of complex ligand binding systems at equilibrium: some methods for parameter fitting. Anal Biochem 1992: 48, 317. De Lean A, Munson P J and Rodbard D. Simultaneous analysis of families of sigmoidal curves: application to bioassay, radioligand assay, and physiological dose-response curves. Am J Physiol 1978: 235 (2), E97-E102.
The results obtained in the above tests for 5-HT1A binding and 5-HT and NA uptake and muscarinic binding for the final products of Examples 1-39 hereinafter are given in Table 1 below. Kis are in nM. % Figures are for % displacement at 10^−6 M for a single determination.

[1] = target: T2, noradrenaline (NA) reuptake sites (Rattus norvegicus, UniProt Q63380); assay: NA uptake: displacement of [3H]nisoxetine from noradrenaline reuptake sites, rat frontal cortical membranes; format: binding; conditions: for inhibition at 1 µM: read-out: NA uptake % displacement at 10^−6 M; for Ki: [3H]nisoxetine 0.6 nM, rat frontal cortical membranes, fit to data from three experiments
T2 construct: Frontal cortical tissue from the brains of male Charles River rats; from tissue; host or cells: rat frontal cortical membranes
Protocol: Frontal cortical tissue from the brains of male Charles River rats weighing 150-250 g was homogenised in ice-cold 50 mM Tris-HCl, pH 7.4 (at 25° C.) containing 120 mM sodium chloride and 5 mM potassium chloride (Tris buffer; 1:60 w/v) using a Kinematic polytron (speed setting 6 for 10 seconds) and centrifuged at 40,000 g for 10 minutes. The supernatant was discarded and the pellet rehomogenised in Tris buffer, 1:60 w/v, and centrifuged at 40,000 g for 10 minutes. This step was repeated twice more so that, in total, the brain tissue was homogenised and centrifuged four times. The final pellet was resuspended in 50 mM Tris-HCl, pH 7.4 containing 300 mM sodium chloride and 5 mM potassium chloride (equivalent to 18.75 mg wet weight of tissue/ml) and used immediately in the binding assay. All centrifugations were performed at 4° C.
Membranes (400 μl; equivalent to 7.5 mg wet weight of tissue/tube) were incubated with 50 μl [^3H]nisoxetine at a single concentration of 0.6 nM and 50 μl of distilled water (total binding) or 50 μl^− of test compound (at a single concentration 10^−6M or at 10 concentrations ranging from 10^−11-10^−3 M) or 50 μl of mazindol (1 μM; non-specific binding) for 4 h at 4° C. Membrane bound radioactivity was recovered by filtration under vacuum through Skatron 11734 filters using a Skatron cell harvester. Filters were rapidly washed with ice-cold 50 mM Tris-HCl, pH 7.4 containing 120 mM sodium chloride and 5 mM potassium chloride (wash setting 9,9,0). The scored filter paper discs were punched out into vials, scintillation fluid added and radioactivity determined by liquid scintillation counting.
as §1, §2, §3, §4, §5, §6
as §7, with “E97-E102. […]” for “E97-E102.”

T1 sequence (P31652 whole entry): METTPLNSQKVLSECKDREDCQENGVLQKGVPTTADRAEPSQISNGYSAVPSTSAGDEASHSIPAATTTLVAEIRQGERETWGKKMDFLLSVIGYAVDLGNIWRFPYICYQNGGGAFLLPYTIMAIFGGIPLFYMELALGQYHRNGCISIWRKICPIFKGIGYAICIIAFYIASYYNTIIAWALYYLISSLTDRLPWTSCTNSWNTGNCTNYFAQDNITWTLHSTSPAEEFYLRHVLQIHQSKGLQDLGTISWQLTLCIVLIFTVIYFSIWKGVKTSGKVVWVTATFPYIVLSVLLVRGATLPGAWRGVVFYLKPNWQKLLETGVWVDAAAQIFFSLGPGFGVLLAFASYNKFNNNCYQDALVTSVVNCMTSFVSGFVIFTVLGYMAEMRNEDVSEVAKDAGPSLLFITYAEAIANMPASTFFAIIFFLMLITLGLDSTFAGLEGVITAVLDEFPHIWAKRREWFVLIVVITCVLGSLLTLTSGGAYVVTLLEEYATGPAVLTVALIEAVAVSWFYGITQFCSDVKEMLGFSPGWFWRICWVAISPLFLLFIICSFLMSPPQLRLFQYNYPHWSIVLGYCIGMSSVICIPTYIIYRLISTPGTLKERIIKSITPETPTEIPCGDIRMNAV
T2 sequence (Q63380 1-617): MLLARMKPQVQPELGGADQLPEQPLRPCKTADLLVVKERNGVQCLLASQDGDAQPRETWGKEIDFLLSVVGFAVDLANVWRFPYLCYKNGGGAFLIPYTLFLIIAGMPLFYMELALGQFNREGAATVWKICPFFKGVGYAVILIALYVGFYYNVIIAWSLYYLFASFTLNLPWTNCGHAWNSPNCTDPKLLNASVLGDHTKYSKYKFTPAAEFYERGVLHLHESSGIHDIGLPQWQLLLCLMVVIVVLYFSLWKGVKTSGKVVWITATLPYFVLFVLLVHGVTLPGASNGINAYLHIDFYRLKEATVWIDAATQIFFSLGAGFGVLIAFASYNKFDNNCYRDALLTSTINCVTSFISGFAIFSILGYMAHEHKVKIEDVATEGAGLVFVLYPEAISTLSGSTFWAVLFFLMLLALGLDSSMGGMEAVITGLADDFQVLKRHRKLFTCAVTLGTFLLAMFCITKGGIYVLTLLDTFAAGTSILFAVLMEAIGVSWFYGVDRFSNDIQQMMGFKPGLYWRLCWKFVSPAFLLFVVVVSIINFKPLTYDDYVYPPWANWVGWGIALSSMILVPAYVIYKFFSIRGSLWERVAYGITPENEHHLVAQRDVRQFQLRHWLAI

Row | SMILES | inhibition at 1 µM (5-HT reuptake sites) [%] | inhibition at 1 µM [1] [%] | melting point [°C] | Ki [1] [µM] | Ki (5-HT reuptake sites) [µM]
1 | Br.CC1=C(c2cc3c(Cl)cccc3s2)N2CCCN=C2S1 [Example 17, 3-(4-chlorobenzo[b]thiophen-2-yl)-2-methyl-6,7-dihydro-5H-thiazolo[3,2-a]pyrimidine hydrobromide] | 84 | 84 | 236 to 238 |  | 
2 | Br.CCC1=C(c2cc3c(Cl)cccc3s2)N2CCN=C2S1 [Example 18, 3-(4-chlorobenzo[b]thiophen-2-yl)-2-ethyl-5,6-dihydroimidazo[2,1-b]thiazole hydrobromide] | 96 |  | 187 to 189 | 0.0295 | 
3 | CSC1=C(c2cc3ccccc3s2)N2CCN=C2S1 [Example 19, 3-(benzo[b]thiophen-2-yl)-2-(methylthio)-5,6-dihydroimidazo[2,1-b]thiazole] |  |  | 95 to 97 | 0.0053 | 0.039
4 | Br.CC1=C(c2cc3cccc(Cl)c3s2)N2CCN=C2S1 [Example 20, 3-(7-chlorobenzo[b]thiophen-2-yl)-2-methyl-5,6-dihydroimidazo[2,1-b]thiazole hydrobromide] | 73 | 47 | 294 to 295 |  | 
5 | Br.CC1=C(c2ccc3sccc3c2)N2CCN=C2S1 [Example 21, 3-(benzo[b]thiophen-5-yl)-2-methyl-5,6-dihydroimidazo[2,1-b]thiazole hydrobromide] |  |  | 285 | 0.0055 | 0.092
6 | CSC1=C(c2cccc3sccc23)N2CCN=C2S1.Cl [Example 22, 3-(benzo[b]thiophen-4-yl)-2-(methylthio)-5,6-dihydroimidazo[2,1-b]thiazole hydrochloride] |  |  | 95 to 105 | 0.0015 | 0.085
7 | CC1=C(c2cccc3ccsc23)N2CCN=C2S1.Cl [Example 23, 3-(benzo[b]thiophen-7-yl)-2-methyl-5,6-dihydroimidazo[2,1-b]thiazole hydrochloride] |  |  | 210 to 212 | 0.004 | 0.229
8 | Br.CC1=C(c2cc3c(Cl)c(Cl)ccc3s2)N2CCN=C2S1 [Example 24, 3-(4,5-dichlorobenzo[b]thiophen-2-yl)-2-methyl-5,6-dihydroimidazo[2,1-b]-thiazole hydrobromide] | 97 | 39 | 244 to 246 |  | 
9 | CCC1=C(c2cccc3sccc23)N2CCN=C2S1.O=C(O)/C=C/C(=O)O [Example 25, 3-(benzo[b]thiophen-4-yl)-2-ethyl-5,6-dihydroimidazo[2,1-b]thiazole fumarate] |  |  | 171 to 173 | 0.0054 | 0.169
10 | Br.COc1cccc2cc(C3=C(C)SC4=NCCN43)sc12 [Example 26, 3-(7-methoxybenzo[b]thiophen-2-yl)-2-methyl-5,6-dihydroimidazo[2,1-b]thiazole hydrobromide] | 64 | -3 | 270 to 272 |  | 
11 | OCC1=C(c2ccc3sccc3c2)N2CCN=C2S1 [Example 28, [3-(benzo[b]thiophen-5-yl)-5,6-dihydroimidazo[2,1-b]-thiazol-2-yl]methanol] |  |  | 149 to 150 | 0.0054 | 0.148
12 | CCC1=C(c2ccc3sccc3c2)N2CCN=C2S1.O=C(O)/C=C/C(=O)O [Example 31, 3-(benzo[b]thiophen-5-yl)-2-ethyl-5,6-dihydroimidazo[2,1-b]thiazole fumarate] |  |  | 145 to 150 | 0.0043 | 0.035
13 | CSC1=C(c2cccc3sccc23)N2CCN=C2S1.O=C(O)/C=C/C(=O)O [Example 32, 3-(benzo[b]thiophen-4-yl)-2-(methylthio)-5,6-dihydroimidazo[2,1-b]thiazole fumarate] |  |  | 185 to 187 | 0.0035 | 0.223
14 | CC1=C(c2cccc3sc(C)cc23)N2CCN=C2S1.Cl [Example 33, 2-methyl-3-(2-methylbenzo[b]thiophen-4-yl)-5,6-dihydroimidazo[2,1-b]thiazole hydrochloride] | 62 | 84 | 271 |  | 
15 | Br.c1cc(C2=C(C3CC3)SC3=NCCN32)c2ccsc2c1 [Example 34, 3-(benzo[b]thiophen-4-yl)-2-cyclopropyl-5,6-dihydroimidazo[2,1-b]thiazole hydrobromide] |  |  | 213 to 214 | 0.002 | 0.053
16 | CC(C)C1=C(c2cccc3sccc23)N2CCN=C2S1.O=C(O)/C=C/C(=O)O [Example 35, 3-(benzo[b]thiophen-4-yl)-2-(1-methylethyl)-5,6-dihydroimidazo[2,1-b]thiazole fumarate] |  |  | 175 to 178 | 0.0055 | 0.083
17 | Br.C=CCC1=C(c2cccc3sccc23)N2CCN=C2S1 [Example 36, 2-allyl-3-(benzo[b]thiophen-4-yl)-5,6-dihydroimidazo[2,1-b]thiazole hydrobromide] |  |  | 188 to 190 | 0.0017 | 0.089
18 | Br.CC1=C(c2ccc3ccsc3c2)N2CCN=C2S1 [Example 37, 3-(benzo[b]thiophen-6-yl)-2-methyl-5,6-dihydroimidazo[2,1-b]thiazole hydrobromide] |  |  | 252 to 254 | 0.0074 | 0.213
